For the assay, the target named is Nluc-H1R (Homo sapiens, UniProt P35367). Nature of the assay: NanoBRET competition binding assay (displacement of 1) on Nluc-H1R expressing HEK293T cells. Conditions: for Ki / pKi: displacement of 1 (25 nM, KD = 8 nM), whole HEK293T cells, Cheng–Prusoff; for pKi/pKD (H1R): supplementary CSV, unlabeled congeners (pKi); for pKi: mean ± SEM, three experiments.

Square brackets hold non-standard residues; d marks the D form. Peptide text beside a SMILES is read from it. * marks the point of attachment. Propanoyl(3-Pip(4-O-2-BnPh)) = O=C(CCN1CCC(Oc2ccccc2Cc2ccccc2)CC1)*

Chain of Nluc-H1R (P35367 whole entry): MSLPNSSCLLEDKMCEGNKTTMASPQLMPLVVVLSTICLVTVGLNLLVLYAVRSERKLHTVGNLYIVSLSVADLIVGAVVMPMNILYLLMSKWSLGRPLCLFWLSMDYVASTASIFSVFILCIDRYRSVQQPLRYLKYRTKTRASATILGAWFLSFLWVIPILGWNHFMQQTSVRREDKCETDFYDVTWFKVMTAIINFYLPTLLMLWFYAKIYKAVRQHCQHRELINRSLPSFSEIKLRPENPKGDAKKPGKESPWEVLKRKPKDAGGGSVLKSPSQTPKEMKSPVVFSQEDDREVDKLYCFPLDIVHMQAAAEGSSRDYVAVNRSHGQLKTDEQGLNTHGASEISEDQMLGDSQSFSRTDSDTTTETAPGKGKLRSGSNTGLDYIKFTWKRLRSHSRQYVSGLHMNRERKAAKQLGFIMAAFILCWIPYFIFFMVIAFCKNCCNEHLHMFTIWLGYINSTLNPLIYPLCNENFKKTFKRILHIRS

With “(S)-N-((S)-1-(((S)-1-(((S)-1-Amino-1-oxo-3-phenylpropan-2-yl)amino)-3-(4-hydroxyphenyl)-1-oxopropan-2-yl)amino)-3-hydroxy-1-oxopropan-2-yl)-2-(3-(4-(2-benzylphenoxy)piperidin-1-yl)propanamido)-3-methylbutanamide [Compound 11a]”, the Ki was 0.089 µM and the “pKi/pKD (H1R)” value is 6.36.

With “(S)-N1-((S)-1-Amino-1-oxo-3-phenylpropan-2-yl)-2-((S)-2-((S)-2-(3-(4-(2-benzylphenoxy)piperidin-1-yl)propanamido)-3-methylbutanamido)-3-hydroxypropanamido)succinimide [Compound 11b]”, the affinity, expressed as Ki, was 0.437 µM; the pKi stood at 6.36 ± 0.22; the “pKi/pKD (H1R)” value is 7.05.

Molecule `CC(C)[C@H](NC(=O)CCN1CCC(Oc2ccccc2Cc2ccccc2)CC1)C(=O)N[C@@H](Cc1ccccc1)C(=O)N[C@@H](C)C(=O)N[C@H](Cc1ccccc1)C(N)=O` [Compound 9c, (S)-N-((S)-1-(((S)-1-(((R)-1-Amino-1-oxo-3-phenylpropan-2-yl)amino)-1-oxopropan-2-yl)amino)-1-oxo-3-phenylpropan-2-yl)-2-(3-(4-(2-benzylphenoxy)piperidin-1-yl)-propanamido)-3-methylbutanamide] ({Propanoyl(3-Pip(4-O-2-BnPh))}-VFA[dF]-NH2) gave a Ki of 0.794 µM and a pKi of 6.10 ± 0.20.

Turning to `C[C@H](NC(=O)[C@H](C)NC(=O)[C@H](CC(N)=O)NC(=O)CCN1CCC(Oc2ccccc2Cc2ccccc2)CC1)C(=O)N[C@H](Cc1ccccc1)C(N)=O` [Compound 8g, (S)-N-((S)-1-(((S)-1-(((R)-1-Amino-1-oxo-3-phenylpropan-2-yl)amino)-1-oxopropan-2-yl)amino)-1-oxopropan-2-yl)-2-(3-(4-(2-benzylphenoxy)piperidin-1-yl)-propanamido)succinamide] ({Propanoyl(3-Pip(4-O-2-BnPh))}-NAA[dF]-NH2), the Ki is 0.562 µM and the pKi is 6.25 ± 0.20.

Take `C[C@H](NC(=O)[C@H](C)NC(=O)[C@H](CCCCN)NC(=O)CCN1CCC(Oc2ccccc2Cc2ccccc2)CC1)C(=O)N[C@H](Cc1ccccc1)C(N)=O` [Compound 8i, (S)-6-Amino-N-((S)-1-(((S)-1-(((R)-1-amino-1-oxo-3-phenylpropan-2-yl)amino)-1-oxopropan-2-yl)-amino)-1-oxopropan-2-yl)-2-(3-(4-(2-benzylphenoxy)piperidin-1-yl)-propanamido)hexanamide] ({Propanoyl(3-Pip(4-O-2-BnPh))}-KAA[dF]-NH2): the Ki was 1.62 µM and the pKi came out at 5.79 ± 0.18.

Take `C[C@H](NC(=O)CCN1CCC(Oc2ccccc2Cc2ccccc2)CC1)C(=O)N[C@@H](C)C(=O)N[C@@H](C)C(=O)N[C@H](Cc1ccccc1)C(N)=O` [Compound 8a, (S)-N-((R)-1-Amino-1-oxo-3-phenylpropan-2-yl)-2-((S)-2-((S)-2-(3-(4-(2-benzylphenoxy)piperidin-1-yl)-propana-mido)propanamido)propanamido)propanamide] ({Propanoyl(3-Pip(4-O-2-BnPh))}-AAA[dF]-NH2): the Ki turned out to be 0.912 µM and the pKi is given as 6.04 ± 0.16.

The molecule `CC(C)[C@H](NC(=O)CCN1CCC(Oc2ccccc2Cc2ccccc2)CC1)C(=O)N[C@@H](CO)C(=O)N[C@H](C(=O)N[C@H](Cc1ccccc1)C(N)=O)C(C)C` [Compound 10b, (S)-N-((R)-1-Amino-1-oxo-3-phenylpropan-2-yl)-2-((S)-2-((S)-2-(3-(4-(2-benzylphenoxy)piperidin-1-yl)propanamido)-3-methylbutanamido)-3-hydroxypropanamido)-3-methylbutanamide] ({Propanoyl(3-Pip(4-O-2-BnPh))}-VSV[dF]-NH2) yielded a Ki of 0.309 µM and a pKi of 6.51 ± 0.07.

Molecule `CC(C)[C@H](NC(=O)CCN1CCC(Oc2ccccc2Cc2ccccc2)CC1)C(=O)N[C@@H](CO)C(=O)N[C@@H](CCCCN)C(=O)N[C@H](Cc1ccccc1)C(N)=O` [Compound 10h, (S)-6-Amino-N-((R)-1-amino-1-oxo-3-phenylpropan-2-yl)-2-((S)-2-((S)-2-(3-(4-(2-benzylphenoxy)piperidin-1-yl)propanamido)-3-methylbutanamido)-3-hydroxypropanamido)hexanamide] ({Propanoyl(3-Pip(4-O-2-BnPh))}-VSK[dF]-NH2) had a Ki of 0.186 µM and a pKi of 6.73 ± 0.05.

The molecule `CC(C)[C@H](NC(=O)CCN1CCC(Oc2ccccc2Cc2ccccc2)CC1)C(=O)N[C@@H](CO)C(=O)NCC(=O)N[C@H](Cc1ccccc1)C(N)=O` [Compound 10a, (S)-N-((S)-1-((2-(((R)-1-Amino-1-oxo-3-phenylpropan-2-yl)amino)-2-oxoethyl)amino)-3-hydroxy-1-oxopropan-2-yl)-2-(3-(4-(2-benzylphenoxy)piperidin-1-yl)propanamido)-3-methylbutanamide] ({Propanoyl(3-Pip(4-O-2-BnPh))}-VSG[dF]-NH2) showed a Ki of 0.158 µM and a pKi of 6.80 ± 0.05.

The molecule `C[C@H](NC(=O)[C@H](C)NC(=O)[C@H](Cc1cnc[nH]1)NC(=O)CCN1CCC(Oc2ccccc2Cc2ccccc2)CC1)C(=O)N[C@H](Cc1ccccc1)C(N)=O` [Compound 8h, (S)-N-((S)-1-(((S)-1-(((R)-1-Amino-1-oxo-3-phenylpropan-2-yl)amino)-1-oxopropan-2-yl)amino)-1-oxopropan-2-yl)-2-(3-(4-(2-benzylphenoxy)piperidin-1-yl)propanamido)-3-(1H-imidazol-5-yl)propanamide] ({Propanoyl(3-Pip(4-O-2-BnPh))}-HAA[dF]-NH2) registered a Ki of 0.933 µM and a pKi of 6.03 ± 0.13.

`CC(C)[C@H](NC(=O)CCN1CCC(Oc2ccccc2Cc2ccccc2)CC1)C(=O)N[C@@H](Cc1cnc[nH]1)C(=O)N[C@@H](C)C(=O)N[C@H](Cc1ccccc1)C(N)=O` [Compound 9g, (S)-N-((S)-1-(((S)-1-(((R)-1-Amino-1-oxo-3-phenylpropan-2-yl)amino)-1-oxopropan-2-yl)amino)-3-(1H-imidazol-5-yl)-1-oxopropan-2-yl)-2-(3-(4-(2-benzylphenoxy)piperidin-1-yl)propanamido)-3-methylbutanamide] ({Propanoyl(3-Pip(4-O-2-BnPh))}-VHA[dF]-NH2) came in with a Ki of 0.692 µM and a pKi of 6.16 ± 0.06.

On to `CC(C)[C@H](NC(=O)CCN1CCC(Oc2ccccc2Cc2ccccc2)CC1)C(=O)N[C@@H](CC(=O)O)C(=O)N[C@@H](C)C(=O)N[C@H](Cc1ccccc1)C(N)=O` [Compound 9i, (S)-4-(((S)-1-(((R)-1-Amino-1-oxo-3-phenylpropan-2-yl)amino)-1-oxopropan-2-yl)amino)-3-((S)-2-(3-(4-(2-benzylphenoxy)piperidin-1-yl)propanamido)-3-methylbutanamido)-4-oxobutanoic Acid] ({Propanoyl(3-Pip(4-O-2-BnPh))}-VDA[dF]-NH2), for which the affinity, expressed as Ki, was 0.55 µM and the pKi turned out to be 6.26 ± 0.14.

Source of the values: publication PMC9234962, “Optimization of Peptide Linker-Based Fluorescent Ligands for the Histamine H1 Receptor” (Journal of Medicinal Chemistry, 2022).
